Test results from patent publication US4766130A, “2-phenyl-imidazopyridin-ones and also useful as cardiotonics and anti-hypertensives” (Celamerck GmbH & Co. KG, priority 1983, dated 1988).
Structures can show the parent of a compound that is named as a salt.

Tested on: anesthetized cats
Test: Determination of the effect on blood pressure and the positive inotropic effect in anesthetized cats
Type: in vivo
Settings: 2 mg/kg i.v.; for Increase in dp/dtmax in %: left ventricle contractility parameter; for Reduction in Blood Pressure in mm Hg: arterial pressure, aorta abdominalis
Experimental: Determination of the effect on blood pressure and the positive inotropic effect in anesthetized cats
The tests were carried out on cats which had been anesthetized with sodium pentobarbital (40 mg/kg i.p.). The animals breathed spontaneously. The arterial blood pressure was measured in the aorta abdominalis, using a Statham pressure transducer (P 23 Dc). To determine the positive inotropic effect, the pressure in the left ventricle was measured with a catheter-tip manometer (Millar PC-350 A). From this, the contractility parameter dp/dtmax was obtained, using an analogue differentiator. The test compounds were injected into a vena femoralis. The solvent used was physiological saline solution of Polydiol 200. Each compound was tested on at least 3 cats, dosage 2 mg/kg i.v.

Structure (SMILES) | Duration of effective action (Half life) [min] | Increase in dp/dtmax in % | Reduction in Blood Pressure in mm Hg (value after the slash) [mm Hg] | Reduction in Blood Pressure in mm Hg (value before the slash) [mm Hg]
COc1cc(OS(C)(=O)=O)ccc1-c1nc2c(=O)[nH]ccc2[nH]1 [D, 2-(2-methoxy-4-methanesulfonyloxy-phenyl)-5H-imidazo[4,5-c]pyridin-4-one hydrochloride] | 31 | +117% | -42 | -42
COc1cc(OS(C)(=O)=O)ccc1C1=NC2=CCC(=O)NC2=N1 [C, 2-(2-methoxy-4-methanesulfonyloxy-phenyl)-4H-imidazo[4,5-b]pyridin-5-one] | 31 | +158% | -54 | -54
COc1cc(OS(C)(=O)=O)ccc1C1=NC2=NCC(=O)NC2=N1 [G, 2-(2-methoxy-4-methanesulfonyloxy-phenyl)-4H-imidazo[4,5-b]pyrazin-5-one] | 5 | +100% | -27 | -26
COc1cc(OS(C)(=O)=O)ccc1-c1nc2nc(OS(C)(=O)=O)ccc2[nH]1 (single isomer, unassigned) [B, 2-(2-methoxy-4-methanesulfonyloxy-phenyl)-5-methanesulfonyloxy-imidazo[4,5-b]pyridine] | 37 | +53% | -42 | -50
COc1cc(OS(C)(=O)=O)ccc1-c1nc2c(OS(C)(=O)=O)nccc2[nH]1 [E, 2-(2-methoxy-4-methanesulfonyloxy-phenyl)-4-methanesulfonyloxy-imidazo[4,5-c]pyridine] | 29 | +87% | -27 | -35
C#CCOc1ccc(-c2nc3c(=O)[nH]ccc3[nH]2)c(OC)c1 [F, 2-(2-methoxy-4-propargyloxy-phenyl)=5H-imidazo[4,5-c]pyridin-4-one] | 8 | +138% | -47 | -59
COc1cc(OS(C)(=O)=O)ccc1-c1nc2[nH]c(=O)ncc2[nH]1 [A, 8-(2-methoxy-4-methanesulfonyloxy-phenyl)-3(1)H-purin-2-one] | 42 | +48% | -6 | -8
